Assays:
COX-1 enzyme = target: T1, COX-1 enzyme (Ovis aries, UniProt P05979); assay: Cyclooxygenase inhibitory assay (oxygen consumption, arachidonic acid substrate), COX-1; type: biochemical; conditions: for COX-1 enzyme inhibition: at 100 ppm (FIG. 1)
T1 sequence (P05979 25-600): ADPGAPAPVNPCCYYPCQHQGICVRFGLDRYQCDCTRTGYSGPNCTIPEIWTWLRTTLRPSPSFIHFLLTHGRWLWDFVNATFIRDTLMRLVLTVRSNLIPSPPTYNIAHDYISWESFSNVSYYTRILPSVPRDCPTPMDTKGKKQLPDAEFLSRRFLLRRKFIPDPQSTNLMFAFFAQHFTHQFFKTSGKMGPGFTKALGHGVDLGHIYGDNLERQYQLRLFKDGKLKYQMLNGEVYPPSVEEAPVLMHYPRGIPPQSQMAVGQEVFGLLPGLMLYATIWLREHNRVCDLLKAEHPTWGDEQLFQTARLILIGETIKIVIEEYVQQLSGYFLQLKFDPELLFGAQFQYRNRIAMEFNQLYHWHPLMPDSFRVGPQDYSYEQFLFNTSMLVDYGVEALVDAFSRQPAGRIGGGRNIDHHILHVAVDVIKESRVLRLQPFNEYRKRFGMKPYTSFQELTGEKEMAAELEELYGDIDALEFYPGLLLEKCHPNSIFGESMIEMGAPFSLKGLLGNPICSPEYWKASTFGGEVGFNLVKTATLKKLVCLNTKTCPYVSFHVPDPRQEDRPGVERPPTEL
Procedure: (§1) Cyclooxygenase enzyme inhibitory assay of the extracts and compounds were carried out using COX-1 and COX-2 enzymes according to the previously published procedures (Jayaprakasam, B. et al., 2006. J. Agric. Food Chem., 54, 5375-5381).
(§2) Cyclooxygenase Inhibitory Activity. The rate of oxygen consumption during the initial phase of the enzyme-mediated reaction, with arachidonic acid as substrate was measured using a Model 5300 biological oxygen monitor (Yellow Spring Instrument, Inc., Yellow Spring, Ohio). The test compounds, extracts and positive controls were dissolved in DMSO and an aliquot of 10 μL of each was added to the reaction chamber containing 0.6 mL of Tris buffer (0.1 M, pH 7) and, 1 mM of phenol, hemoglobin (17 μg). COX-1 or -2 enzymes (10 μL) was added to the chamber and incubated for 3 min. The reaction was initiated by the addition of arachidonic acid (10 μL of 1 mg/mL solution). Instantaneous inhibition was measured by using Quick Log Data acquisition and control computer software (Strawberry Tree Inc., Sunnyvale, Calif., USA). The percent inhibition was calculated with respect to DMSO control. Each sample was assayed twice and the standard deviation was calculated for n=2. Aspirin, Celebrex and Vioxx were used as positive controls.

COX-2 enzyme = target: T2, COX-2 enzyme (Homo sapiens, UniProt P35354); assay: Cyclooxygenase inhibitory assay (oxygen consumption, arachidonic acid substrate), COX-2; type: biochemical; conditions: for COX-2 enzyme inhibition: at 100 ppm (FIG. 1)
T2 sequence (P35354 18-604): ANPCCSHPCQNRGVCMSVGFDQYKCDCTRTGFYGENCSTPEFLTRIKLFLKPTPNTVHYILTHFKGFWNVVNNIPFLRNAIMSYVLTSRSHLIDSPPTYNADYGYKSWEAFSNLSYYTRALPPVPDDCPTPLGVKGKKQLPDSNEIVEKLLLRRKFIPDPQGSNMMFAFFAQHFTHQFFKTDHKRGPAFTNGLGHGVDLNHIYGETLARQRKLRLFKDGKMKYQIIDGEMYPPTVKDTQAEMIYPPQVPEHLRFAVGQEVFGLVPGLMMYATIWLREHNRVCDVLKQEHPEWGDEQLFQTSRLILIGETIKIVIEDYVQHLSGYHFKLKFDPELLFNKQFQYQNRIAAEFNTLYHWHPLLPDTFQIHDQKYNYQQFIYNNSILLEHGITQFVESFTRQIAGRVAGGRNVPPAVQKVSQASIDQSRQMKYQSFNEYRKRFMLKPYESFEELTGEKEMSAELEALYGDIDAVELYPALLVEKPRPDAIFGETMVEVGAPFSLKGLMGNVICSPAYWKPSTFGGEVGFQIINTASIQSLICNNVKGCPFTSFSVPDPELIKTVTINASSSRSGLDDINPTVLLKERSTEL
Procedure: as §1, §2

| Compound | COX-1 enzyme inhibition (COX-1 enzyme) | COX-2 enzyme inhibition (COX-2 enzyme) | also measured |
| --- | --- | --- | --- |
| O=Cc1ccc(O)c(O)c1O [Compound J, 2,3,4-trihydroxybenzaldehyde] | – | – | activity on COX-1 enzyme (COX-1 enzyme; even at a 500 ppm concentration (FIG. 2)): not active; selective inhibition of COX-2 enzyme (COX-2 enzyme; FIG. 1, 100 ppm, versus COX-1): selectively inhibited COX-2 enzyme; IC50 (COX-2 enzyme; dose response (FIG. 2), read-out: IC50, inhibition of COX-2 (converted)): ~64.9 µM |
| O=Cc1cccc(O)c1 [C, 3-hydroxybenzaldehyde] | – | – | selective inhibition of COX-1 enzyme (COX-1 enzyme; FIG. 1, 100 ppm, versus COX-2): selectively inhibited COX-1 enzyme |
| O=Cc1cc(O)c(O)cc1O [K, 2,4,5-trihydroxybenzaldehyde] | not active | not active | – |
| O=Cc1ccccc1 [A, Benzaldehyde] | not active | not active | – |
